# Source: patent publication US6410219B1 (priority 1994, dated 2002)
# Counter-ions that a name gives are not always drawn.
# Assays:
# R-17 = assay type: cell-based, bacteriophage R17
# CA-HIV = assay type: cell-based
# red blood cells [1] = tested on: red blood cells
# red blood cells [2] = test: IgG binding to red blood cell surfaces (Example 10); assay type: cell-based; details: 10-300 μg/ml
# Protocol: Potassium levels on remaining samples were measured and the samples were stored at 4° C. Potassium measurements were repeated daily for one week or until significant differences were observed. Extracellular potassium data appears in Table 15, and FIG. 6. IgG binding in the samples was measured using Baxter Unival Anti-Human Globulin Anti-IgG for Direct Antiglobulin Test and Baxter Coornbs control Cells for Quality Control of Anti-Human Globulin Test (both available from Baxter Healthcare Corporation, Deerfield, Ill.). The results of IgG Binding as measured by FACScan™ (Becton Dickinson, Mountain View, Calif.) appear in Tables 15 and 16: […]
# R17 [3] = assay type: cell-based, bacteriophage R17
# red blood cells [4] = details: mouse, in vivo
# red blood cells [5] = details: Swiss Webster, mouse, in vivo
# R17 [6] = assay type: cell-based, bacteriophage R17; remark: listed apart in the source
compound,measurement,setting,value
COc1c2occc2c(CN(C)CO)c2ccc(=O)oc12,Dose for 5 log kill R-17,R-17,>75 μM
same,"Logs Virus Killed at Fixed Drug Dose, R-17",R-17,<0.5
"4′-[3-(Bis-2-chloroethyl)amino-1-propylaminomethyl]-4,5′,8-trimethylpsoralen",Dose for 5 log kill R-17,R-17,≦2 μM
same,"Logs Virus Killed at Fixed Drug Dose, CA-HIV",CA-HIV,0.4
"4′-[4-(Bis-2-chloroethyl)amino-1-butylaminomethyl]-4,5′,8-trimethylpsoralen [Compound S-210]","Logs Virus Killed at Fixed Drug Dose, CA-HIV",CA-HIV,0.8
"5′-[4-(Bis-2chloroethyl)amino-1-butylaminomethyl]-4,4′, 8-trimethylpsoralen",Dose for 5 log kill R-17,R-17,≦2 μM
same,"Logs Virus Killed at Fixed Drug Dose, R-17",R-17,>6
same,"Logs Virus Killed at Fixed Drug Dose, CA-HIV",CA-HIV,0.7
"O=C(O)CCCc1ccc(N(CCCl)CCCl)cc1 [Chlorambucil, chlorambucil]",potassium leakage of red cells,red blood cells [1],did not alter
same,IgG binding of red cells,red blood cells [2],did not alter
same,R17 inactivation,R17 [3],≤ 0.4 logs
"CCN(CCCl)CCCNc1c2ccc(Cl)cc2nc2ccc(OC)cc12 [ICR-170, N-(2-chloroethyl)-N-ethyl-N′-(6-chloro-2-methoxy-9-acridinyl)-1,3-propanediamine dihydrochloride]","% RECOVERY, LOW",red blood cells [4]; Balb/c,93.1%
same,"% RECOVERY, HIGH",red blood cells [4],90.4%
same,LOSS PER DAY,red blood cells [5],2.71%
same,RECOVERY,red blood cells [5],86.0 ± 6.6
"CCN(CC)CCCC(C)Nc1c2ccc(Cl)cc2nc2ccc(OC)cc12 (stereo not shown) [Q, quinicrine]",light-dependent kill of R17,R17 [6],no light-dependent kill
